Measurements taken from US12491178B2, “Stable pharmaceutical compositions of edaravone” (Slayback Pharma LLC, priority 2023, dated 2025).

Columns and labels:
[1] = Solubility of edaravone in solubility enhancing agents; assay type: physicochemical
From the text: The table below, illustrates the best possible solubilizing agents that are utilized in the present invention.

[2] = cited from earlier work

Solubility ([1]; in Alcohol): 52.27 mg/gm
Solubility ([1]; in CCMG 400 LQ (Mixture of caprylocaproyl polyoxylglycerides)): 14.36 mg/gm
Solubility ([1]; in Capryol 90 (Propylene Glycol Monocaprylate)): 15.8 mg/gm
Solubility ([1]; in Capryol 90 + Ethanol (50:50)): 65.0 mg/gm
Solubility ([1]; in Castor Oil): 7.9 mg/gm
Solubility ([1]; in Castor oil + Ethanol (50:50)): 72.2 mg/gm
Solubility ([1]; in Cotton seed oil): 2.1 mg/gm
Solubility ([1]; in Imwitor 988 (Ester of caprylic acid and glycerol)): 13.59 mg/gm
Solubility ([1]; in Kollisolv MCT 70): 8.61 mg/gm
Solubility ([1]; in Labrafil M 1944 (Oleoyl polyoxyl-6 glycerides)): 6.9 mg/gm
Solubility ([1]; in Labrafil M 2125 (Linoleoyl Polyoxyl-6 glycerides)): 9.10 mg/gm
Solubility ([1]; in Labrasol ALF (Caprylocaproyl Polyoxyl-8 glycerides), edaravone dissolved per gram of agent): 25.1 mg/gm
Solubility ([1]; in Labrasol ALF + Ethanol (50:50)): 78.8 mg/gm
Solubility ([1]; in Lauroglycol 90 (Propylene glycol monolaurate)): 8.1 mg/gm
Solubility ([1]; in Miglyol 812 (Triester of caprylic and capric acid)): 11.26 mg/gm
Solubility ([1]; in PEG 300 (polyethylene glycol)): 26.4 mg/gm
Solubility ([1]; in PEG 300 + Ethanol (50:50)): 66.3 mg/gm
Solubility ([1]; in Peanut oil): 1.7 mg/gm
Solubility ([1]; in Peppermint Oil): 37.6 mg/gm
Solubility ([1]; in Peppermint Oil + Ethanol (50:50)): 72.8 mg/gm
Solubility ([1]; in Polysorbate 20): 17.7 mg/gm
SMILES: CC1=NN(c2ccccc2)C(=O)C1 [edaravone, 3-methy-1-phenyl-2-pyrazolin-5-one]
oral bioavailability (Fabs) [2]: 5.23%
